Assays:
[1] = tested on: patients with pain treatment after surgery; assay: Meta analysis of four clinical studies with M6G pain treatment after surgery
Source text: The four studies M6G001, M6G012, M6G015 and M6G022 are described in the following.
The following variables were included in the meta analysis:
Nausea (none, mild, moderate, severe)
Sedation (none, mild, moderate, severe)
Pain (none, mild, moderate, severe)

[2] = tested on: patients following major abdominal surgery; assay: M6G022 study: analgesic efficacy and tolerability of M6G and morphine following major abdominal surgery
Method: Pain relief, nausea and emesis were recorded for 24 to 48 hours after start of the patient controlled analgesia.
The study site personnel (with the exception of the pharmacy); representatives of the sponsoring company; and the organisation involved in monitoring, data management, or other aspects of the study were blinded to the study treatment. The use of midazolam, temazepam, zopiclone or other short-acting pre-operative anxiolytics was allowed. All patients received a standardised general anaesthetic consisting of propofol induction, with either isoflurane or sevoflurane maintenance. These inhalational agents are associated with a similar risk of PONV. Nitrous oxide was not allowed because of its emetic effects, and the risk of an imbalance in its use. An initial bolus of 1-3 μg/kg of fentanyl or 0.1-0.3 μg/kg of sufentanyl followed by further doses as required, was used for pre- and peri-operative analgesia. Post-operative analgesia was provided by the study drug.
The investigator could administer up to 5 ml of PCA study drug, on no more than two occasions in each 24 hour post-operative period, as rescue medication if the patient was in uncontrolled pain. […] The patients stayed on PCA for a minimum of 24 hours following surgery, but could continue up to 48 hours if clinically indicated.
No prophylactic antiemetic was given, although iv ondansetron (4 mg/2 ml) was available if the patient experienced severe nausea, or immediately following emesis. If this was ineffective further doses of ondansetron; or other agents such as cyclizine, prochlorperazine or perphenazine; were allowed.
Pain intensity at rest was assessed by the patients using the VRS-11 scale at baseline, 15, 30 and 45 minutes and 1, 2, 4, 6, 9, 12, 15, 18, 21 and 24 hours after the start of PCA. A numerical scale was chosen because of the practical difficulty for post-operative patients of completing a visual analogue scale. If the patient remained on PCA after 24 hours, the pain scores were recorded every 8 hours up to 48 hours. In addition, at the end of the study the patients and observers were asked to assess the acceptability of their pain relief over the entire study using a 5 point rating global scale ranging from very poor (1) to excellent (5). […] The total consumption of study drugs was calculated.
Emesis risk factors of female gender; history of motion sickness or PONV; or smoking status were recorded at screening. Post-operative nausea was assessed by the patient using a 4 point ordinal scale (none, mild, moderate, severe) and occurrence of vomiting or dry retching recorded (yes/no; and if yes, the number of episodes) pre-operatively (Day −1), at baseline, and at 1, 2, 4, 6, 9, 12, 15, 18, 21, 24, 32, 40 and 48 hours after administration of the test analgesic. Nausea and vomiting were also combined in a single scoring system (postoperative nausea & vomiting, PONV), with an episode of vomiting or dry retching being scored as a 3 (severe) on the nausea scale.
Sedation was assessed using a combination of a binary question (sleepy, yes or no) and a 3 point ordinal scale (mild, moderate, severe) if the patient was sedated. All adverse events were recorded, along with concomitant medication use, with particular attention being paid to the use of anti-emetics.
The Intention to Treat (ITT) set of patients comprised all those who had been exposed to study medication at least once. This analysis set was the basis for the main efficacy and all safety and demographic analyses. Data were double entered using interactive verification into a CLINTRIAL database (Version 3.3.3, Phase Forward, Waltham, Mass., USA), and analysed using SAS (version 8.2, SAS Institute Inc., Cary, N.C., USA).

## CN1CC[C@]23c4c5ccc(O)c4O[C@H]2[C@@H](O)C=C[C@H]3[C@H]1C5 [Morphine, morphine]
[1]; during first 24 hours
  pain-free time: 9.0 to 10.9 h
[1]; human, in vivo, intravenous
  patients with moderate to severe sedation: 81.4%
[1]; time window 0 to 6 hours
  patients with moderate to severe pain: 54.2%
[1]; time window 6-24 hours
  patients with moderate to severe pain: 34.0%
[1]; worst assessment
  patients with moderate to severe nausea: 32.8%
  patients with vomiting: 36.5%
[2]; 4-48 h
  mean totals of PCA demands: 93.9
[2]; baseline
  patients with sedation score recorded as severe: 28.5%
[2]; baseline (when given control of the PCA button)
  patients sedated: 88.0%
[2]; early post-operative period (up to 4 hours)
  mean totals of PCA demands: 28.8
[2]; loading and recovery doses before PCA
  dose required to achieve comfort initially: 14.4 mg/70 kg
